NC(=O)N1c2ccccc2CC(=O)c2ccccc21
solubility (mole fraction)
Details	in DMAc	in DMF	in DMSO	in NMP	in transcutol	in water
288.15 K	0.0256	0.0202	0.0312	0.0346	0.00418	5.42e-06
293.15 K	0.0189	0.0212	0.0339	0.0358	0.00437	5.85e-06
298.15 K	0.0205	0.0174	0.0367	0.0369	0.00456	6.3e-06
303.15 K	0.0222	0.0183	0.0259	0.038	0.00475	6.74e-06
308.15 K	0.0239	0.0193	0.0285	0.0335	0.00495	7.2e-06
